Source: paper PMC3750913 (BMC Microbiology, 2013)
Like-named read-outs stand apart in the source and are kept apart here.

Legend:
VSV = format: cell-based, vesicular stomatitis virus; conditions: A549 cells
DENV-2 [1] = assay: Analysis of drug effects post viral entry; format: cell-based, dengue virus type 2; conditions: DENV-2; Figure 6
HCMV [2] = assay: Dose-response antiviral assay (plaque assay); format: cell-based, human cytomegalovirus; conditions: for SI (selectivity index, CC50/EC50): HCMV, HEL cells; for EC50: HCMV in HEL cells, co-treatment with viral inoculum, read-out: Antiviral effect EC50
MV [3] = assay: Viral attachment assay, method 1 (host cell infection); format: cell-based, measles virus; conditions: for inhibition of entry (virus attachment): MV, method 1, 4°C, Figure 4, PUG more effective than CHLA
HCMV [4] = assay: Viral attachment assay, method 2 (virus-specific cellular ELISA); format: cell-based, human cytomegalovirus; conditions: HCMV MOI 5, ELISA, 4°C; highest inhibitory concentration of the compounds
RSV [5] = assay: Analysis of drug effects post viral entry; format: cell-based, respiratory syncytial virus; conditions: for protection, treatment post-infection: RSV, Figure 6
MV [6] = assay: Viral attachment assay, method 2 (virus-specific cellular ELISA); format: cell-based, measles virus; conditions: MV MOI 1, ELISA, 4°C; highest inhibitory concentration of the compounds
HCMV [7] = assay: Viral attachment assay, method 1 (host cell infection); format: cell-based, human cytomegalovirus; conditions: Human betaherpesvirus 5, HEL, read-out: Window of antiviral effects: Attachment Method 1, inhibitory effect relative to DMSO control
MV [8] = assay: Analysis of drug effects post viral entry; format: cell-based, measles virus; conditions: for protection, treatment post-infection: MV, Figure 6
MV [9] = assay: Viral cell-to-cell spread assay; format: cell-based, measles virus; conditions: for effect on viral plaque size (cell-to-cell spread): MV, Figure 7
RSV [10] = assay: Viral attachment assay, method 1 (host cell infection); format: cell-based, respiratory syncytial virus; conditions: for inhibition of virus attachment: RSV, method 1, 4°C, Figure 4
MV [11] = assay: microbe, parasite or virus in culture; format: cell-based, measles virus; conditions: for EC50: MV in CHO-SLAM cells, co-treatment with viral inoculum, read-out: Antiviral effect EC50; for SI (selectivity index, CC50/EC50): MV, CHO-SLAM cells
RSV [12] = assay: Viral cell-to-cell spread assay; format: cell-based, respiratory syncytial virus; conditions: for effect on viral plaque size (cell-to-cell spread): RSV, Figure 7
DENV-2 [13] = assay: Viral penetration assay; format: cell-based, dengue virus type 2; conditions: DENV-2; shift 4°C to 37°C; Figure 4
HCV [14] = format: cell-based, hepatitis C virus; conditions: Huh-7.5 cells
HCMV [15] = assay: Viral penetration assay; format: cell-based, human cytomegalovirus; conditions: for protection of the host cell from infection during virus penetration: HCMV, shift 4°C to 37°C, Figure 4
MV [16] = assay: Viral inactivation assay; format: cell-based, measles virus; conditions: for block of infection after pre-incubation of free virus with compound: MV, CHLA 90 μM, PUG 50 μM, Figure 3
HCV [17] = assay: Viral inactivation assay; format: cell-based
HCV [18] = assay: Viral attachment assay, method 2 (virus-specific cellular ELISA); format: cell-based, hepatitis C virus; conditions: HCV MOI 0.1, ELISA, 4°C; highest inhibitory concentration of the compounds
HCMV [19] = assay: Viral cell-to-cell spread assay; format: cell-based, human cytomegalovirus; conditions: for effect on viral plaque size (cell-to-cell spread): HCMV, Figure 7
DENV-2 [20] = assay: Viral attachment assay, method 1 (host cell infection); format: cell-based, dengue virus type 2; conditions: DENV-2, method 1, 4°C; Figure 4
[21] = Measles morbillivirus, read-out: Window of antiviral effects: Attachment Method 1, inhibitory effect relative to DMSO control
[22] = Measles morbillivirus, read-out: Window of antiviral effects: Post-infection, inhibitory effect relative to DMSO control
[23] = Measles morbillivirus, read-out: Window of antiviral effects: Cell-to-cell spread, inhibitory effect relative to DMSO control
[24] = human respiratory syncytial virus, HEp-2, read-out: Window of antiviral effects: Attachment Method 1, inhibitory effect relative to DMSO control
[25] = human respiratory syncytial virus, HEp-2, read-out: Window of antiviral effects: Cell-to-cell spread, inhibitory effect relative to DMSO control
[26] = Human betaherpesvirus 5, HEL, read-out: Window of antiviral effects: Penetration, inhibitory effect relative to DMSO control
[27] = Measles morbillivirus, read-out: Window of antiviral effects: Free particle, inhibitory effect relative to DMSO control
[28] = Hepatitis C virus, Huh7.5, read-out: Window of antiviral effects: Free particle, inhibitory effect relative to DMSO control
[29] = Human betaherpesvirus 5, HEL, read-out: Window of antiviral effects: Cell-to-cell spread, inhibitory effect relative to DMSO control

SMILES	SI (selectivity index, CC50/EC50) (VSV)	protection, treatment post-infection (DENV-2 [1]) [%]	SI (selectivity index, CC50/EC50) (HCMV [2])	inhibition of entry (virus attachment) (MV [3])	Window of antiviral effects: Attachment Method 2, inhibitory effect relative to DMSO control (HCMV [4])	protection, treatment post-infection (RSV [5]) [%]	Window of antiviral effects: Attachment Method 2, inhibitory effect relative to DMSO control (MV [6])	protection, treatment post-infection (MV [8])	effect on viral plaque size (cell-to-cell spread) (MV [9])	inhibition of virus attachment (RSV [10])	EC50 (MV [11]) [µM]	SI (selectivity index, CC50/EC50) (MV [11])	EC50 (MV [11]; Measles morbillivirus) [µM]	effect on viral plaque size (cell-to-cell spread) (RSV [12])	SI (selectivity index, CC50/EC50) (HCV [14])	protection of the host cell from infection during virus penetration (HCMV [15])	block of infection after pre-incubation of free virus with compound (MV [16])	inhibition at 50 µM (HCV [17]; [28]) [%]	Window of antiviral effects: Attachment Method 2, inhibitory effect relative to DMSO control (HCV [18])	effect on viral plaque size (cell-to-cell spread) (HCMV [19])	other results
O=C1O[C@H]2[C@@H]3OC(=O)c4cc(O)c(O)c(O)c4-c4c(O)c(O)c5oc(=O)c6c(c(O)c(O)c7oc(=O)c4c5c76)-c4c(cc(O)c(O)c4O)C(=O)OC[C@H]3OC(O)[C@@H]2OC(=O)c2cc(O)c(O)c(O)c2-c2c1cc(O)c(O)c2O (mixture of isomers) [PUG, punicalagin]	8.62	< 25	17.86	50 – 80%	++ (++ 50–75%)	< 25	++ (++ 50–75%)	80 – 100%	near initial size	90 – 100%	25.5 ± 2.94	11.13	< 35	unaffected and expanded further	13.31	50 – 90%	60 – 80%	> 75	+++ (+++ > 75%)	near initial size	inhibition at 50 µM (MV [3]; [21]): > 75%; inhibition at 2 µM (RSV [5]; human respiratory syncytial virus, HEp-2, read-out: Window of antiviral effects: Post-infection, inhibitory effect relative to DMSO control): < 25%; inhibition at 40 µM (HCMV [7]): 50 to 75%; inhibition at 50 µM (MV [8]; [22]): > 75%; inhibition at 50 µM (MV [9]; [23]): > 75%; inhibition at 2 µM (RSV [10]; [24]): > 75%; inhibition at 2 µM (RSV [12]; [25]): < 25%; protection of the host cell from infection during virus penetration (DENV-2 [13]): 50 – 90%; inhibition at 40 µM (HCMV [15]; [26]): 50 to 75%; inhibition at 50 µM (MV [16]; [27]): 50 to 75%; inhibition at 50 µM (HCV [17]; Hepatitis C virus, read-out: inhibition of infection after pre-incubation of free virus with compound): ~100%; inhibition at 40 µM (HCMV [19]; [29]): > 75%; inhibition of virus attachment (DENV-2 [20]): 90 – 100%
O=C(O)C[C@@H]1C(=O)O[C@H]2[C@@H]3OC(=O)c4cc(O)c(O)c(O)c4-c4c(cc(O)c(O)c4O)C(=O)OC[C@H]2O[C@@H](OC(=O)c2cc(O)c(O)c(O)c2)[C@@H]3OC(=O)c2cc(O)c(O)c3c2[C@H]1[C@H](O)C(=O)O3 [CHLA, chebulagic acid]	5.17	< 25	12.01	50 – 80%	+++ (+++ > 75%)	< 25	++ (++ 50–75%)	80 – 100%	near initial size	90 – 100%	34.4 ± 4.35	10.22	< 35	unaffected and expanded further	19.54	50 – 90%	60 – 80%	> 75	+++ (+++ > 75%)	near initial size	EC50 (HCMV [2]): 25.5 ± 1.51 µM; EC50 (HCMV [2]; Human betaherpesvirus 5, HEL): < 35 µM; inhibition at 90 µM (MV [3]; [21]): 50 to 75%; inhibition at 90 µM (MV [8]; [22]): > 75%; inhibition at 90 µM (MV [9]; [23]): > 75%; inhibition at 1 µM (RSV [10]; [24]): > 75%; inhibition at 1 µM (RSV [12]; [25]): < 25%; inhibition at 60 µM (HCMV [15]; [26]): 50 to 75%; inhibition at 90 µM (MV [16]; [27]): 50 to 75%; inhibition at 50 µM (HCV [17]; Hepatitis C virus; read-out: inhibition of infection after pre-incubation of free virus with compound): ~100%; inhibition at 60 µM (HCMV [19]; [29]): > 75%; inhibition of virus attachment (DENV-2 [20]): 90 – 100%
